Legend:
Neutrophil = experiment: Inhibition of human neutrophil migration incubated for 30 mins prior to fMLP challenge by boyden chamber assay; assay type: functional, cell-based
Cannabinoid receptor 1 [1] = biological target: Cannabinoid receptor 1 (Rattus norvegicus, UniProt P20272); experiment: Binding affinity to rat CB1 receptor
Cannabinoid receptor 1 [2] = biological target: Cannabinoid receptor 1 (Mus musculus, UniProt P47746); experiment: Partial agonist activity at mouse CB1 receptor by vas deferens assay
[3] = Reduction of lecithin content in human fibroblast at 30 uM; assay type: ADME, cell-based; parameters: scale not given: the % may be the effect or the level left
Mus musculus [4] = experiment: Reduction of IL-1beta protein expression in C57BL/6J mouse hippocampus inoculated with human amyloid beta (1 to 42) at 10 ug/kg, ip after 10 days by immunofluorescence analysis; assay type: functional; parameters: scale not given: the % may be the effect or the level left
[5] = Antiinflammatory activity in human glial cells assessed as reduction of LPS-induced nitrate expression at 1 uM; assay type: functional; parameters: scale not given: the % may be the effect or the level left
[6] = Antiinflammatory activity in human glial cells assessed as reduction of LPS-induced iNOS expression at 1 uM; assay type: functional; parameters: scale not given: the % may be the effect or the level left
[7] = Induction of rat TRPV3 expressed in HEK293 cells assessed as increase of Ca2+ level; assay type: cell-based
[8] = Reduction of sphingomyelin content in human fibroblast at 30 uM; assay type: ADME, cell-based; parameters: scale not given: the % may be the effect or the level left
Fibroblast [9] = experiment: Reduction of lecithin content in Niemann-Pick patient fibroblast at 30 uM; assay type: functional, Homo sapiens; parameters: scale not given: the % may be the effect or the level left
HEK293 = experiment: Induction of rat TRPV3 expressed in HEK293 cells assessed as increase of Ca2+ level relative to ionomycin; assay type: cell-based
[10] = Antiinflammatory activity in human glial cells assessed as reduction of LPS-induced S100B expression at 1 uM; assay type: functional; parameters: scale not given: the % may be the effect or the level left
Mus musculus [11] = experiment: Reduction of IL-1beta release in C57BL/6J mouse hippocampus inoculated with human amyloid beta (1 to 42) at 10 ug/kg, ip after 10 days by ELISA; assay type: functional; parameters: scale not given: the % may be the effect or the level left
Mus musculus [12] = experiment: Reduction of iNOS protein expression in C57BL/6J mouse hippocampus inoculated with human amyloid beta (1 to 42) at 10 ug/kg, ip after 10 days by immunofluorescence analysis; assay type: functional; parameters: scale not given: the % may be the effect or the level left
Mus musculus [13] = experiment: Antiinflammatory activity in Swiss OF1 mouse assessed as reduction of LPS-induced TNF-alpha expression at 10 mg/kg, ip by immunoblotting analysis; assay type: functional; parameters: scale not given: the % may be the effect or the level left; details: route intraperitoneal
Fibroblast [14] = experiment: Reduction of sphingomyelin content in Niemann-Pick patient fibroblast at 30 uM; assay type: functional, Homo sapiens; parameters: scale not given: the % may be the effect or the level left
Mus musculus [15] = experiment: Reduction of NO release in C57BL/6J mouse hippocampus inoculated with human amyloid beta (1 to 42) at 10 ug/kg, ip after 7 days; assay type: functional; parameters: scale not given: the % may be the effect or the level left

Chain of Cannabinoid receptor 1 (Rattus norvegicus, UniProt P20272) (P20272 whole entry): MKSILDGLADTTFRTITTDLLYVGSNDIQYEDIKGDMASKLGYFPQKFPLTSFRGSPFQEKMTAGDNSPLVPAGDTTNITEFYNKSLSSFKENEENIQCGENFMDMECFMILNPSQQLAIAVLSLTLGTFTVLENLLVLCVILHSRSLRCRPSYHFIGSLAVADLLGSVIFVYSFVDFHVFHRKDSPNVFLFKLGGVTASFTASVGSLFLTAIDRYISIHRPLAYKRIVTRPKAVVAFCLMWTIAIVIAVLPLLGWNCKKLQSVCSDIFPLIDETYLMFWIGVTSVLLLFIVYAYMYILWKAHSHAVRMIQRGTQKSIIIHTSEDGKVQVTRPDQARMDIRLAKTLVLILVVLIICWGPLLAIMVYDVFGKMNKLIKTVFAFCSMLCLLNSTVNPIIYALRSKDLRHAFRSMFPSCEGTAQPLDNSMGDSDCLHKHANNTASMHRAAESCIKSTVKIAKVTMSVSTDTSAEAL
Chain of Cannabinoid receptor 1 (Mus musculus, UniProt P47746) (P47746 whole entry): as the sequence (P20272 whole entry) above, with E95D counted along it

In the case of `C=C(C)[C@@H]1CCC(C)=C[C@H]1c1c(C)cc(O)cc1O`, the IC50 (Neutrophil) is reported as 33 nM.

With `CCCCCCC(C)(C)c1cc(OC)c([C@H]2C=C(CO)[C@H]3C[C@@H]2C3(C)C)c(OC)c1` the Ki (Cannabinoid receptor 1 [1]) was greater than 10000 nM.

Work on `C=C(C)[C@@H]1CCC(C)=C[C@H]1c1ccc(CCCCC)cc1O` yielded an IC50 (Cannabinoid receptor 1 [2]) of 30.9 nM.

`C=C(C)[C@@H]1CCC(C)=C[C@H]1c1c(O)cc(CCCCC)cc1O` [CANNABIDIOL] gave an Activity [3] of 21%, an Activity (Mus musculus [4]) of 50% and an IC50 (Neutrophil) of 0.45 nM. For the same compound, the Activity [5] was greater than 50%, the Activity [6] was greater than 50% and the EC50 [7] was 3700 nM. The Activity [8] was 17%, the Activity (Fibroblast [9]) was 21% and the Activity (HEK293) was 50%. It also gave an Activity [10] greater than 50%, an Activity (Mus musculus [11]) of 50% and an Activity (Mus musculus [12]) of 50%. The Activity (Mus musculus [13]) was 50%, the Activity (Fibroblast [14]) was 77% and the Activity (Mus musculus [15]) was 50%.
